In brackets after ≈: the same amount, converted by molar mass.
Assays:
KB = experiment: Cytotoxicity against human KB cells; type: functional, cell-based
LoVo = experiment: Cytotoxicity against human LoVo cells; type: functional, cell-based

**Q.** For `CC[C@H](C)[C@H](O)C(=O)N[C@@H](CC(C)C)C(=O)N(C)[C@@H](CCC(N)=O)C(=O)N[C@H](C(=O)NCC(=O)N(C)[C@H](Cc1ccccc1)C(=O)N1CCC[C@H]1C(=O)OC)[C@@H](C)CC` [TASIAMIDE], which IC50 (KB) is on record?
**A.** The IC50 was 0.48 µg/mL (≈ 0.578 µM).

**Q.** And the IC50 (LoVo)?
**A.** The IC50 was 3.47 µg/mL (≈ 4.18 µM).

From ChEMBL document CHEMBL1150640, “Tasiamide, a cytotoxic peptide from the marine cyanobacterium Symploca sp” (J Nat Prod, 2002)
